Reference: ChEMBL document CHEMBL1201862, “PubChem BioAssay data set” (2004)
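Test compounds were applied to cells in 96-well plates for 48 hours at 5 doses. Abbreviation: GI50, concentration required for 50% inhibition of growth.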 The source made the active and inactive calls. Cut-off read from the data, not from the text of the source: active = GI50 up to about 1.1 µM and inactive = higher. Where a SMILES comes first, the peptide text is derived from it. The star is where a group is joined. Boc = CC(C)(C)OC(=O)*; OBn = c1ccc(CO*)cc1

Legend:
Assay in all cases: inhibition of tumour cell growth, NCI panel, 48 h
LXFL 529 = system: LXFL 529
OVCAR-8 = system: OVCAR-8
UACC-257 = system: UACC-257
KM12 = system: KM12
A498 = system: A498
OVCAR-3 = system: OVCAR-3
K562 = system: K562
NCI-H23 = system: NCI-H23
HOP-62 = system: HOP-62
MOLT-4 = system: MOLT-4
NCI-H522 = system: NCI-H522
HOP-92 = system: HOP-92
EKVX = system: EKVX
SK-MEL-2 = system: SK-MEL-2
SR = system: SR
HL-60 = system: HL-60
NCI/ADR-RES = system: NCI/ADR-RES
PC-3 = system: PC-3
Hs-578T = system: Hs-578T
MDA-N = system: MDA-N

Measured: GI50

CCOC(=O)C(=O)CC1=Nc2ccccc2SC(c2cccc(C)c2)C1 (centres undefined)
inactive: LXFL 529 18.1 µM | OVCAR-8 12.6 µM | UACC-257 19 µM | KM12 16.2 µM | A498 18.1 µM | OVCAR-3 19.5 µM | K562 19.7 µM | NCI-H23 17.1 µM | HOP-62 23.9 µM | MOLT-4 17.3 µM | NCI-H522 17.3 µM | HOP-92 16 µM | EKVX 21.5 µM | SK-MEL-2 16.3 µM | SR 22.2 µM

Cc1ccc(S(=O)(=O)c2c(N)c3nc4ccccc4n3c3nc4ccccc4nc23)cc1
inactive: LXFL 529 > 100 µM | OVCAR-8 > 100 µM | UACC-257 > 100 µM | KM12 > 100 µM | OVCAR-3 > 100 µM | K562 > 100 µM | NCI-H23 > 100 µM | HOP-62 7.59 µM | MOLT-4 > 100 µM | NCI-H522 > 100 µM | EKVX > 100 µM | SK-MEL-2 > 100 µM | SR > 100 µM

O=C(O)c1ccc([C@@H]2C(=O)N(O)[C@@H]3C=CC[C@@H]32)cc1
inactive: LXFL 529 > 100 µM | HL-60 > 100 µM | OVCAR-8 > 100 µM | UACC-257 > 100 µM | KM12 > 100 µM | OVCAR-3 > 100 µM | K562 > 100 µM | NCI-H23 > 100 µM | HOP-62 > 100 µM | MOLT-4 > 100 µM | NCI-H522 > 100 µM | EKVX > 100 µM | SK-MEL-2 > 100 µM

COc1cc(C2C(C(=O)Nc3ccc(Cl)c(Cl)c3)=C(C)NC(C)=C2C(=O)Nc2ccc(Cl)c(Cl)c2)ccc1O
inactive: LXFL 529 9.27 µM | HL-60 4.38 µM | OVCAR-8 13.9 µM | UACC-257 13.8 µM | KM12 11.7 µM | A498 12.2 µM | OVCAR-3 9.82 µM | K562 6.68 µM | NCI-H23 12.5 µM | HOP-62 11 µM | MOLT-4 4.31 µM | NCI-H522 3.65 µM | HOP-92 2.6 µM | EKVX 10.3 µM | SK-MEL-2 8.17 µM

OCC(CCc1ccccc1I)C1=CCC2(CC1)OCCO2 (centres undefined)
inactive: NCI/ADR-RES 20.8 µM | HL-60 3.53 µM | OVCAR-8 17 µM | UACC-257 21.6 µM | KM12 16.4 µM | A498 24.1 µM | OVCAR-3 18.6 µM | K562 > 100 µM | NCI-H23 20.5 µM | HOP-62 18.2 µM | MOLT-4 61.2 µM | PC-3 22.4 µM | NCI-H522 15.2 µM | HOP-92 12.4 µM | EKVX 21.4 µM | Hs-578T 20.7 µM | MDA-N 18.2 µM | SK-MEL-2 23.9 µM | SR 45.6 µM

COc1cc2c(cc1OC)C(=O)N(c1ccc(OCCN3CCCC3)cc1)C2
inactive: NCI/ADR-RES > 100 µM | HL-60 > 100 µM | OVCAR-8 > 100 µM | UACC-257 > 100 µM | KM12 > 100 µM | A498 > 100 µM | OVCAR-3 > 100 µM | K562 > 100 µM | NCI-H23 > 100 µM | HOP-62 > 100 µM | MOLT-4 > 100 µM | PC-3 > 100 µM | NCI-H522 > 100 µM | HOP-92 > 100 µM | EKVX > 100 µM | Hs-578T > 100 µM | MDA-N > 100 µM | SK-MEL-2 > 100 µM | SR > 100 µM

COC(=O)c1ccccc1/C=C1\Cc2c(C)c3c(c(C)c2C1=O)CCC3
inactive: NCI/ADR-RES > 100 µM | HL-60 > 100 µM | OVCAR-8 > 100 µM | UACC-257 > 100 µM | KM12 > 100 µM | A498 > 100 µM | OVCAR-3 > 100 µM | K562 > 100 µM | NCI-H23 > 100 µM | HOP-62 > 100 µM | MOLT-4 > 100 µM | PC-3 > 100 µM | NCI-H522 > 100 µM | HOP-92 > 100 µM | EKVX > 100 µM | Hs-578T 24.5 µM | MDA-N > 100 µM | SK-MEL-2 6.27 µM | SR > 100 µM

CC(C)(C)OC(=O)N[C@H]1CC(=O)c2ccccc2N(CC(=O)O)C1=O
inactive: LXFL 529 > 100 µM | HL-60 > 100 µM | OVCAR-8 > 100 µM | UACC-257 > 100 µM | KM12 > 100 µM | OVCAR-3 > 100 µM | NCI-H23 > 100 µM | HOP-62 > 100 µM | MOLT-4 > 100 µM | NCI-H522 > 100 µM | HOP-92 > 100 µM | EKVX > 100 µM | SK-MEL-2 > 100 µM

CC(=O)O[C@]12CCC[C@H]1C1(O)C(O)CCC[C@H]12 (some centres undefined)
inactive: LXFL 529 > 100 µM | HL-60 > 100 µM | OVCAR-8 > 100 µM | UACC-257 > 100 µM | KM12 > 100 µM | K562 > 100 µM | NCI-H23 > 100 µM | HOP-62 > 100 µM | MOLT-4 > 100 µM | NCI-H522 > 100 µM | EKVX > 100 µM | SK-MEL-2 > 100 µM | SR > 100 µM

CCCCCCCCOCC(CO)OCCCCCCCC (centres undefined)
inactive: LXFL 529 18.9 µM | HL-60 19 µM | OVCAR-8 19.3 µM | UACC-257 21.3 µM | A498 18.8 µM | OVCAR-3 19.9 µM | K562 18.4 µM | NCI-H23 18.7 µM | HOP-62 21.6 µM | MOLT-4 19.2 µM | HOP-92 21.8 µM | SR > 10 µM

CC(C)CC(NC(=O)C(Cc1ccccc1)NC(=O)C(Cc1ccccc1)NC(=O)OC(C)(C)C)C(=O)OCc1ccccc1 (stereo not drawn) (Boc-Phe-Phe-Leu-OBn; configuration not given here)
inactive: NCI/ADR-RES > 100 µM | HL-60 > 100 µM | OVCAR-8 > 100 µM | UACC-257 > 100 µM | KM12 > 100 µM | A498 > 100 µM | OVCAR-3 > 100 µM | K562 > 100 µM | NCI-H23 > 100 µM | HOP-62 > 100 µM | MOLT-4 > 100 µM | PC-3 > 100 µM | NCI-H522 > 100 µM | HOP-92 > 100 µM | EKVX > 100 µM | Hs-578T > 100 µM | MDA-N > 100 µM | SK-MEL-2 > 100 µM | SR > 100 µM

CC[C@]12CCCN3CCc4c(n(c5ccccc45)C(=O)C1)[C@@H]32 [VINBURNINE]
inactive: NCI/ADR-RES 3.25 µM | HL-60 2.65 µM | OVCAR-8 15.5 µM | UACC-257 15.2 µM | KM12 4.54 µM | A498 14.4 µM | OVCAR-3 2.44 µM | K562 2.9 µM | NCI-H23 13.7 µM | HOP-62 4.76 µM | MOLT-4 12.2 µM | PC-3 18.2 µM | NCI-H522 2.32 µM | HOP-92 > 80.9 µM | EKVX 46.9 µM | Hs-578T 9.33 µM | MDA-N 1.53 µM | SK-MEL-2 4.92 µM | SR 1.31 µM
